Measured values published in patent publication US11566007B2, “Ras inhibitors” (Revolution Medicines, Inc., priority 2019, dated 2023).
Where two headings read alike, the source gives them in different places.

Experiments:
[1] = system: NCI-H358 cells (K-Ras G12C); assay: Potency assay: pERK in NCI-H358 cells; format: cell-based, human; conditions: Homo sapiens, NCI-H358; H358 KRAS G12C; read-out: pERK EC50
How it was run: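 pERK decrease read by AlphaLISA SureFire p-ERK1/2 or In-Cell Western after 4 h compound exposure at 37 °C, 5% CO2.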

[2] = system: NCI-H358 (K-Ras G12C); assay: CellTiter-Glo cell viability assay, NCI-H358; format: cell-based, human; conditions: Homo sapiens, NCI-H358, 120 h, class symbols
How it was run: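 Cells seeded, compound added directly, 5-day exposure. Plates to RT ~30 min, CellTiter-Glo luminescence read. Normalized to DMSO avg (x100); 4-parameter logistic fit.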

[3] = target: K-Ras G12C (Homo sapiens (Human), UniProt P01116+P62937, G12C); assay: Ras-Raf (BRAF RBD) disruption / FRET / MOA assay, KRAS G12C; format: biochemical; conditions: KRAS G12C; Ras-Raf disruption/FRET/MOA assay; read-out: IC50* KRAS G12C FRET data
How it was run: (§1)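 TR-FRET read-out: a drop in ratio relative to DMSO wells marks disruption of the Ras:RAF complex, reported as IC50. Compounds (3-fold series, 10 points, top 30 μM final) incubated 3 h at 25° C before Eu-anti-His 10 nM and APC-anti-GST 50 nM, 1.5 h more.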

[4] = target: K-Ras G13C (Homo sapiens (Human), UniProt P01116+P62937, G13C); assay: Ras-Raf (BRAF RBD) disruption / FRET / MOA assay, KRAS G13C; format: biochemical; conditions: KRAS G13C; Ras-Raf disruption/FRET/MOA assay; read-out: IC50* KRAS G13C FRET data
How it was run: as §1

[5] = target: KRAS G12S (Homo sapiens (Human), UniProt P01116+P62937, G12S); assay: Ras-Raf (BRAF RBD) disruption / FRET / MOA assay, KRAS G12S; format: biochemical; conditions: Ras-Raf disruption/FRET/MOA assay; class symbols; read-out: KRAS G12S FRET data IC50
How it was run: as §1

[6] = target: KRAS G12D (Homo sapiens (Human), UniProt P01116+P62937, G12D); assay: Ras-Raf (BRAF RBD) disruption / FRET / MOA assay, KRAS G12D; format: biochemical; conditions: Ras-Raf disruption/FRET/MOA assay; class symbols; read-out: KRAS G12D FRET data IC50
How it was run: as §1

[7] = target: KRAS G12V (Homo sapiens (Human), UniProt P01116+P62937, G12V); assay: Ras-Raf (BRAF RBD) disruption / FRET / MOA assay, KRAS G12V; format: biochemical; conditions: read-out: IC50* KRAS G12V FRET data
How it was run: as §1

[8] = target: KRAS WT (Homo sapiens (Human), UniProt P01116+P62937); assay: Ras-Raf (BRAF RBD) disruption / FRET / MOA assay, KRAS WT; format: biochemical; conditions: read-out: IC50* KRAS WT FRET data
How it was run: as §1

[9] = target: KRAS G13D (Homo sapiens (Human), UniProt P01116+P62937, G13D); assay: Ras-Raf (BRAF RBD) disruption / FRET / MOA assay, KRAS G13D; format: biochemical; conditions: read-out: IC50* KRAS G13D FRET data
How it was run: as §1

[10] = target: NRAS G12C (Homo sapiens (Human), UniProt P01111+P62937, G12C); assay: Ras-Raf (BRAF RBD) disruption / FRET / MOA assay, NRAS G12C; format: biochemical; conditions: read-out: IC50* NRAS G12C FRET data
How it was run: as §1

[11] = NCI-H358, 5-day treatment, read-out: Additional H358 Cell Viability assay data (K-Ras G12C, IC50)

KRAS G13D, sequence (P01116-2 other isoform, or with tags, fused parts or gaps G13D): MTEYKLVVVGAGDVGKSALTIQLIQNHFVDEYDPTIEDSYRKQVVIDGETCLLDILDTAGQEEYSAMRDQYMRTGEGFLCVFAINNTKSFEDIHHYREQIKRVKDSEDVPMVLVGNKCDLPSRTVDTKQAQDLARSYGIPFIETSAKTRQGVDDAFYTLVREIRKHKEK
KRAS G13D, sequence (P62937 whole entry): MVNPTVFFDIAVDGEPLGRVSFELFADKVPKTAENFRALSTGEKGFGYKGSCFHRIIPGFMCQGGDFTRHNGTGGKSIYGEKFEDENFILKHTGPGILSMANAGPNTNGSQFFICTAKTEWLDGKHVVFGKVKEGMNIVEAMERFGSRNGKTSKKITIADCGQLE
KRAS WT, sequence (P01116-2 other isoform, or with tags, fused parts or gaps): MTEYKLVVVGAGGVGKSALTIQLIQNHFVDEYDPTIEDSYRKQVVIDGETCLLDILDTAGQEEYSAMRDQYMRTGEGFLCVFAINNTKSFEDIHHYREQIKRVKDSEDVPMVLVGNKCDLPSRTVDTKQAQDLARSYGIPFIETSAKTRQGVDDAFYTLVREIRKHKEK
KRAS WT, sequence (P62937 whole entry): as the sequence (P62937 whole entry) above
KRAS G12D, sequence (P01116-2 other isoform, or with tags, fused parts or gaps G12D): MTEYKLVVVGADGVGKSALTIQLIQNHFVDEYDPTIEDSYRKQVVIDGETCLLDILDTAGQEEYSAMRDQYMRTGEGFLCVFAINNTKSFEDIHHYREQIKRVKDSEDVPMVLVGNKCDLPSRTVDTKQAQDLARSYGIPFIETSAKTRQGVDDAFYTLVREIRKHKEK
KRAS G12D, sequence (P62937 whole entry): as the sequence (P62937 whole entry) above
KRAS G12V, sequence (P01116-2 other isoform, or with tags, fused parts or gaps G12V): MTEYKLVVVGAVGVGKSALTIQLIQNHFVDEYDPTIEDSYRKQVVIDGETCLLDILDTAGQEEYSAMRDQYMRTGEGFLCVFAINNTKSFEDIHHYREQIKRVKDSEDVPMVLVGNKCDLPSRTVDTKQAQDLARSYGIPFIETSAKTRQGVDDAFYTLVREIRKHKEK
KRAS G12V, sequence (P62937 whole entry): as the sequence (P62937 whole entry) above
K-Ras G12C, sequence (P01116-2 other isoform, or with tags, fused parts or gaps G12C): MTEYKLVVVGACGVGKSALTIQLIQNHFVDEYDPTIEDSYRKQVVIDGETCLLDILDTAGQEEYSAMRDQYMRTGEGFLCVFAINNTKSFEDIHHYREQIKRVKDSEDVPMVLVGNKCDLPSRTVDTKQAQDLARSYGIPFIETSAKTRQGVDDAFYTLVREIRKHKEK
K-Ras G12C, sequence (P62937 whole entry): as the sequence (P62937 whole entry) above
NRAS G12C, sequence (P01111 whole entry G12C): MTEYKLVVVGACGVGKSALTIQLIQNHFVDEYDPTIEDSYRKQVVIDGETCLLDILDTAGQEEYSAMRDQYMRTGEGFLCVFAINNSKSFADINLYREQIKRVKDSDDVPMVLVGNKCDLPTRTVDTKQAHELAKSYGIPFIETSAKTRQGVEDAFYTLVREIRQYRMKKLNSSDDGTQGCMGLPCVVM
NRAS G12C, sequence (P62937 whole entry): as the sequence (P62937 whole entry) above
KRAS G12S, sequence (P01116-2 other isoform, or with tags, fused parts or gaps G12S): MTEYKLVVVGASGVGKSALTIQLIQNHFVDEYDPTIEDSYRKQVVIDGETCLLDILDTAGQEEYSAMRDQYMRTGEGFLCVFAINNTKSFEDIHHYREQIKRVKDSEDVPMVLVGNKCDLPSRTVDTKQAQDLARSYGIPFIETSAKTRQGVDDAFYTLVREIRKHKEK
KRAS G12S, sequence (P62937 whole entry): as the sequence (P62937 whole entry) above
K-Ras G13C, sequence (P01116-2 other isoform, or with tags, fused parts or gaps G13C): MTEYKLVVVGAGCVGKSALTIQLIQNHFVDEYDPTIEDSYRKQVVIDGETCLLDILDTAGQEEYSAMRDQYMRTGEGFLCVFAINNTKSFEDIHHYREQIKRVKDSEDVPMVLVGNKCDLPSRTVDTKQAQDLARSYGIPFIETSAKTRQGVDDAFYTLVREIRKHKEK
K-Ras G13C, sequence (P62937 whole entry): as the sequence (P62937 whole entry) above

Compound | EC50 [1] [nM] | IC50 [2, 11] [µM] | IC50 [3] [nM] | IC50 [4] [nM] | IC50 [5] [nM] | IC50 [6] [nM] | IC50 [7] [nM] | IC50 [8] [nM] | IC50 [9] [nM] | IC50 [10] [nM] | IC50 ([2]; read-out: Additional H358 Cell Viability assay data (K-Ras G12C, IC50, uM), NCI-H358, 5-day treatment) [µM]
C=CC(=O)N1CC[C@H](C(=O)N(C)[C@H](C(=O)N[C@@H]2C(=O)N3CCC[C@H](N3)C(=O)OCC(C)(C)Cc3c(-c4cncnc4)n(CC)c4ccc(cc34)-c3cccc(c3)[C@H]2O)C(C)C)C1 [Example A272] | < 5000 | > 1 | 1000 to 10000 | > 10000 | > 10000 | > 10000 | > 10000 | > 10000 | > 10000 | > 10000 | 
C=CC(=O)N1CC[C@H](C(=O)N(C)[C@H](C(=O)N[C@H]2Cc3cc(O)cc(c3)-c3ccc4c(c3)c(c(-c3cnccc3[C@@H](OC)C3CC3)n4CC)CC(C)(C)COC(=O)[C@@H]3CCCN(N3)C2=O)C(C)C)C1 [Example A274] | < 5000 | 0.1 to 1 | 1000 to 10000 | > 10000 | > 10000 | > 10000 | > 10000 | > 10000 | > 10000 | 1000 to 10000 | 
CCn1c(-c2cccnc2[C@H](C)OC)c2c3cc(ccc31)-c1csc(n1)C[C@H](NC(=O)[C@H](C(C)C)N(C)C(=O)[C@H]1CCC(C(=O)/C=C/CN(C)C)C1)C(=O)N1CCC[C@H](N1)C(=O)OCC(C)(C)C2 (stereo partly shown) [Example A282] | < 5000 | 0.01 to 0.1 | 100 to 1000 | 1000 to 10000 | 1000 to 10000 | 1000 to 10000 | 1000 to 10000 | 1000 to 10000 | 1000 to 10000 | 100 to 1000 | 
C=CC(=O)N1CCC2(CCN([C@H](C(=O)N[C@H]3Cc4cc(O)cc(c4)-c4ccc5c(c4)c(c(-c4cccnc4[C@H](C)OC)n5CC)CC(C)(C)COC(=O)[C@@H]4CCCN(N4)C3=O)C(C)C)C2=O)C1 (stereo partly shown) [Example A295] | < 5000 | < 0.01 | 10 to 100 | 10 to 100 | 10 to 100 | 100 to 1000 | 10 to 100 | 10 to 100 | 100 to 1000 | 10 to 100 | 
C=CS(=O)(=O)N1CCC2(CCN([C@H](C(=O)N[C@H]3Cc4cc(O)cc(c4)-c4ccc5c(c4)c(c(-c4cccnc4[C@H](C)OC)n5CC)CC(C)(C)COC(=O)[C@@H]4CCCN(N4)C3=O)C(C)C)C2=O)C1 (stereo partly shown) [Example A298] | < 5000 | < 0.01 | < 10 | < 10 | 10 to 100 | 100 to 1000 | 10 to 100 | 10 to 100 | 10 to 100 | < 10 | 
CCn1c(-c2cccnc2[C@H](C)OC)c2c3cc(ccc31)-c1cccc(c1)C[C@H](NC(=O)[C@H](C(C)C)N(C)C(=O)[C@H]1CCN(C(=O)C#C[C@]3(C)CCCN3C)C1)C(=O)N1CCC[C@H](N1)C(=O)OCC(C)(C)C2 [Example A317] | < 5000 | < 0.01 | < 10 | 1000 to 10000 | 1000 to 10000 | > 10000 | 1000 to 10000 | 1000 to 10000 | > 10000 | 10 to 100 | 
C=CC(=O)N1C2CC1CN(C(=O)N(C)[C@H](C(=O)N[C@H]1Cc3nc(cs3)-c3ccc4c(c3)c(c(-c3cccnc3[C@H](C)OC)n4CC)CC(C)(C)COC(=O)[C@@H]3CCCN(N3)C1=O)C(C)C)C2 [Example A408] | < 5000 |  | 100 to 1000 | 100 to 1000 | 100 to 1000 | 1000 to 10000 | 100 to 1000 | 100 to 1000 | 1000 to 10000 | 100 to 1000 | 0.01 to 0.1
C=CC(=O)N1CC[C@H](C(=O)N(C)[C@H](C(=O)N[C@H]2Cc3csc(n3)-c3ccc4c(c3)c(c(-c3cc(N5CCN(C)CC5)cnc3[C@H](C)OC)n4CC(F)(F)F)CC(C)(C)COC(=O)[C@@H]3CCCN(N3)C2=O)C(C)C)C1 [Example A410] | < 5000 | < 0.01 | 10 to 100 | 100 to 1000 | 100 to 1000 | 1000 to 10000 | 100 to 1000 | 100 to 1000 | 100 to 1000 | 10 to 100 | 
C=CC(=O)N1CC2CCC1CN2C(=O)N(C)[C@H](C(=O)N[C@H]1Cc2nc(cs2)-c2ccc3c(c2)c(c(-c2cccnc2[C@H](C)OC)n3CC)CC(C)(C)COC(=O)[C@@H]2CCCN(N2)C1=O)C(C)C [Example A420] | < 5000 | 0.01 to 0.1 | 100 to 1000 | 100 to 1000 | 100 to 1000 | 1000 to 10000 | 100 to 1000 | 100 to 1000 | 1000 to 10000 | 100 to 1000 | 
CCn1c(-c2cccnc2[C@H](C)OC)c2c3cc(ccc31)-c1cccc(c1)C[C@H](NC(=O)[C@H](C(C)C)N(C)C(=O)[C@H]1CCN(C(=O)/C=C/CF)C1)C(=O)N1CCC[C@H](N1)C(=O)OCC(C)(C)C2 [Example A449] | < 5000 | 0.01 to 0.1 | 100 to 1000 | 100 to 1000 | 1000 to 10000 | > 10000 | 1000 to 10000 | 1000 to 10000 | 1000 to 10000 | 100 to 1000 | 
C=CC(=O)N1CCC2(C1)OCN([C@H](C(=O)N[C@H]1Cc3cccc(c3)-c3ccc4c(c3)c(c(-c3cccnc3[C@H](C)OC)n4CC)CC(C)(C)COC(=O)[C@@H]3CCCN(N3)C1=O)C(C)C)C2=O (stereo partly shown) [Example A459] | < 5000 | 0.01 to 0.1 | 10 to 100 | 100 to 1000 | 1000 to 10000 | 1000 to 10000 | 1000 to 10000 | 1000 to 10000 | 1000 to 10000 | 10 to 100 | 
CCn1c(-c2cccnc2[C@H](C)OC)c2c3cc(ccc31)-c1cccc(c1)C[C@H](NC(=O)[C@H](C(C)C)N(C)C(=O)[C@@H]1CCN(C(=O)C#CC(C)(C)N3CCC3)C1)C(=O)N1CCC[C@H](N1)C(=O)OCC(C)(C)C2 [Example A476] | < 5000 | < 0.01 | 10 to 100 | 100 to 1000 | 1000 to 10000 | 1000 to 10000 | 1000 to 10000 | 1000 to 10000 | 1000 to 10000 | 10 to 100 | 
C=CC(=O)N1CC(OCC(C(=O)N[C@H]2Cc3cccc(c3)-c3ccc4c(c3)c(c(-c3cccnc3[C@H](C)OC)n4CC)CC(C)(C)COC(=O)[C@@H]3CCCN(N3)C2=O)C(C)C)C1 (stereo partly shown) [Example A483] | < 5000 | < 0.01 | 100 to 1000 | 1000 to 10000 | > 10000 | > 10000 | 1000 to 10000 | 1000 to 10000 | > 10000 | 100 to 1000 | 
C=CC(=O)N1CC[C@H](C(=O)N(C)[C@H](C(=O)N[C@H]2Cc3cccc(c3)-c3ccc4c(c3)c(c(-c3cccnc3[C@H](C)OC)n4CC#N)CC(C)(C)COC(=O)[C@@H]3CCCN(N3)C2=O)C(C)C)C1 [Example A510] | < 5000 | 0.01 to 0.1 | 10 to 100 | 100 to 1000 | 1000 to 10000 | 1000 to 10000 | 1000 to 10000 | 1000 to 10000 | 1000 to 10000 | 10 to 100 | 
CCn1c(-c2cccnc2[C@H](C)OC)c2c3cc(ccc31)-c1cccc(c1)C[C@H](NC(=O)[C@H](C(C)C)N(C)C(=O)C1CCN(C(=O)C#C[C@@H]3CC(F)(F)CN3C)C1)C(=O)N1CCC[C@H](N1)C(=O)OCC(C)(C)C2 (stereo partly shown) [Example A526] | < 5000 | < 0.01 | 10 to 100 | 1000 to 10000 | 1000 to 10000 | > 10000 | 1000 to 10000 | 1000 to 10000 | > 10000 | 10 to 100 | 
CCn1c(-c2cccnc2[C@H](C)OC)c2c3cc(ccc31)-c1cc(O)cc(c1)C[C@H](NC(=O)[C@H](C(C)C)N(C)C(=O)[C@H]1CCN(C(=O)/C=C/C(F)(F)F)C1)C(=O)N1CCC[C@H](N1)C(=O)OCC(C)(C)C2 [Example A527] | < 5000 | < 0.01 | < 10 | 10 to 100 | 10 to 100 | 100 to 1000 | 10 to 100 | 10 to 100 | 10 to 100 | < 10 | 
